# Several values for one entry are separate records, joined by “and”; a condition that tells them apart may be missing. Identical values can stand only once. Like-named read-outs stand apart in the source and are kept apart here.
# Tests used:
# SW480 colon cancer cells [1] = assay: MTT assay of cell viability and proliferation; type: cell-based
# Protocol: SW480 colon cancer cells were treated with solvent DMSO (CONT), staurosporine (STS)—an agent that is known to kill cancer cells—and four select indole derivative compounds. Cell viability and proliferation was examined under a MTT assay protocol. […] The control solvent is shown as in FIG. 1A as the bar corresponding to “CONT.” When treated with only the control solvent, the cancer cells are 100% viable. Yet, according to FIG. 1A, treating cancer cells with 3-(2-bromoethyl) indole reduces cancer cell viability and proliferation by about 60% within 48 hours. As noted in FIG. 1A, 3-(2-bromoethyl) indole is represented by “INDOLE 9.” By comparison, a similar concentration of indole-3-carbinol reduces cell proliferation only by about 30%. As noted in FIG. 1A, indole-3-carbinol is represented by “INDOLE 14.”
# SW480 cells [2] = assay: Microphotographs of cells for signs of apoptosis (membrane blebs); type: cell-based; details: for sign of cell apoptosis, single agent: SW480, 25 ng/ml TNFα alone or 5 μM 3-(2-bromoethyl) indole alone
# Protocol: Microphotographs were taken of SW480 cells treated with vehicle control (DMSO) (top left), 25 ng/ml TNFα (top right), 5 μM 3-(2-bromoethyl) indole (bottom left), and a combination of 25 ng/ml TNFα and 5 μM 3-(2-bromoethyl) indole (bottom right).
# (§1) Second, it was determined whether cytokine-induced NF-kB activation can be blocked by 3-(2-bromoethyl) indole. In prior studies, SW480-NFL cells were tested and confirmed as being responsive to TNFα, a canonical NF-kB pathway inducer, and various clinical chemotherapeutic drugs. To this end, TNFα was first used to activate NF-kB in these reporter cells. It was examined whether co-treatment would interfere with activation of the NF-kB pathway. SW480-NFL cells were treated with 25 ng/ml TNFα as an activator, and with 0.5 μM, 5 μM, or 10 μM BEI-9 as test compound. […] The effect of such a combination treatment is shown in the […] microphotograph in FIG. 14. Referring to FIG. 14, microphotographs were taken of SW480 cells treated with vehicle control (DMSO) (top left), 25 ng/ml TNFα (top right), 5 μM 3-(2-bromoethyl) indole (bottom left), and a combination of 25 ng/ml TNFα and 5 μM 3-(2-bromoethyl) indole (bottom right). Accordingly, in addition to inhibiting NF-kB activation, the addition of 3-(2-bromoethyl) indole to TNFα treated cells may divert TNF receptor-initiated receptor signaling towards apoptosis.
# cyclin A = assay: Immunoblotting of cyclin A protein level; type: cell-based; details: SW480, immunoblotting
# Protocol: (§2) Progression through the cell cycle is regulated by cyclins and their enzyme partner, cyclin dependent kinases (CDK). The regulation of the cyclin-CDK pair activity is controlled by synthesis and degradation of the cyclin moiety. Cyclin D1 is one of the regulatory cyclins involved in the G1-S transition of cells, and is a known oncogene. As cyclin D1 is a key regulator of cell cycle progression, levels of cyclin D1 protein in both control cells and treated cells were assessed by immunoblotting. Also assessed were the levels of cyclin A, another cyclin regulating both G1-S as well as G2-M transitions. […] Accordingly, inhibiting the expression of cyclins likely contributes to the observed “freezing” effect described previously.
# SW480 cancer cells = assay: Cell cycle analysis by flow cytometry; type: cell-based
# Protocol: (§3) SW480 colon cancer cells were treated with either vehicle control (DMSO) or 25 μM 3-(2-bromoethyl) indole. […] By comparison, vehicle-treated cells rapidly proliferated and visibly filled the surface on which they were seeded. Microphotographs were taken 24 hours (a and c) and 48 hours (b and d) after the treatments. […] To further examine the possibility of inhibited cell proliferation, cell cycle analysis was performed by flow cytometry on cells that were treated with 50 μM 3-(2-bromoethyl) indole for 24 and 48 hours. […] In fact, the specific effect of treating cells with 3-(2-bromoethyl) was to “freeze” the cell growth during treatment. This is illustrated in FIG. 3.
# (§4) Increasing concentrations of 3-(2-bromoethyl) indole (from 12.5 μM to 100 μM) were tested on SW480 colon cancer cells, and viability of the treated cells was measured by the CellTiter-Glo® (Promega® Corporation) method. […] Similarly, dose response examination and cell cycle analysis using variable concentrations of 3-(2-bromoethyl) indole ranging from 12.5 to 100 μM confirms that even doses lower than 50 μM inhibit cell proliferation. Thus, useful embodiments of the present invention provide for a method of inhibiting cancer cell proliferation, comprising treating the cancer cells with 3-(2-bromoethyl) indole with concentrations of greater than or equal to 0.2 μM, or in a range of 1.0 μM to 50.0 μM, or more specifically, from 5.0 μM to 25.0 μM.
# It was also examined by flow cytometry whether the combination of CPT and BEI-9 would induce cell apoptosis as measured by accumulation of sub-G1 population. […] Referring to FIG. 17, cell cycle profiles of parental SW480 cells treated with DMSO (a), BEI-9 (b), CPT (c), BEI-9 and CPT co-treatment (d) or 24 hours of CPT followed by 24 hours of only BEI-9 (e) are shown. The short arrow points to the sub-G1 population of cells resulting from the combination treatment.
# SW480 cells [3] = assay: Scratch wound healing assay; type: cell-based; details: SW480, 25 μM, up to 96 hours
# Protocol: Scratch wound healing assay was performed on SW480 cells grown to confluence. Confluent SW480 cells were scratched with a pipette tip to create cell wounds, which were treated with vehicle control solvent (DMSO) and 25 μM 3-(2-bromoethyl) indole. The ability of the cells to migrate and fill the gap created by the scratch was evaluated. […] By comparison, vehicle-treated cells filled the scratch within 96 hours. […] The ability of the cells to migrate and fill the gap was followed by light microscopy imaging at 24-hour intervals. […] The scratch wound is most visible as a clear space at t0. […] Only a few single cells treated with 3-(2-bromoethyl) indole were visible and scattered in the gap. Moreover, there was no evidence of cell division.
# luciferase [4] = molecular target: T1, luciferase (Photinus pyralis, UniProt P08659); type: cell-based; details: HepG2 PXR-luciferase, 10 μM added five minutes before measuring
# T1 construct: expressed in transfected cells; host or cells: HepG2
# T1 sequence (P08659 whole entry, species assumed): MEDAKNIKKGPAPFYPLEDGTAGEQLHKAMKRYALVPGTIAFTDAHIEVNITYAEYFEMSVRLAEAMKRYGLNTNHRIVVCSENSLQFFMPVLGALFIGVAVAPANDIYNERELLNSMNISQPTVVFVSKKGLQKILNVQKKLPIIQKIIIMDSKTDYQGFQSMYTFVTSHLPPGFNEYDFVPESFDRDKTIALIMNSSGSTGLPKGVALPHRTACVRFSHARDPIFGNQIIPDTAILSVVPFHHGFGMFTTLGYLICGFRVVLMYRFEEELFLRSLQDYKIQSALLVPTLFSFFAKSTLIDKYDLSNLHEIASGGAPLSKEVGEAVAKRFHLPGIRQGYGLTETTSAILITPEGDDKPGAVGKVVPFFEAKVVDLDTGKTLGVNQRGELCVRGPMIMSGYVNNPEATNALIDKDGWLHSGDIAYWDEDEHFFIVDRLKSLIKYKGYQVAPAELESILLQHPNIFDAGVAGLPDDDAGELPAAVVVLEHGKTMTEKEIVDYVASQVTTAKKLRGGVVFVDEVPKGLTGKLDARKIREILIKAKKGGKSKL
# Protocol: (§5) Luciferase reporter assays are dependent on the activity of the luciferase enzyme to catalyze the conversion of luciferin to oxyluciferin in the presence of ATP and oxygen, generating light in the process. Therefore, compounds that may directly interfere with the enzyme activity should be distinguished from those that inhibit the signaling activity reported inside the cells. To test this, a PXR-luciferase reporter system expressed in HepG2 cells was used and a luciferase assay was performed by adding 10 μM BEI-9 to the cells five minutes before measuring luciferase catalyzed reactions. In parallel, ATP-dependent cell viability was also measured using a CellTiter-Glo® kit to examine if BEI-9 would compete with cellular ATP, which is required for the luciferase activity.
# cyclin D1 = assay: Immunoblotting of cyclin D1 protein level; type: cell-based; details: SW480, immunoblotting
# Protocol: as §2
# SW480 colon cancer cells [5] = assay: Microscopic evaluation of cell proliferation; type: cell-based; details: SW480, 25 μM, 24 and 48 hours
# Protocol: as §3
# Increasing concentrations of 3-(2-bromoethyl) indole (from 12.5 μM to 100 μM) were tested on SW480 colon cancer cells, and viability of the treated cells was measured by the CellTiter-Glo® (Promega® Corporation) method. […] Similarly, dose response examination and cell cycle analysis using variable concentrations of 3-(2-bromoethyl) indole ranging from 12.5 to 100 μM confirms that even doses lower than 50 μM inhibit cell proliferation. […]
# HCT116 cells [6] = assay: MTS assay viability index; type: cell-based; details: HCT116, variable concentrations
# Protocol: (§6) The activity of 3-(2-bromoethyl) indole on another colon cancer cell line, HCT116, was also tested. […] The absorbance reading at a wavelength of 490 nm is shown on the Y-axis.
# luciferase [7] = assay: ATP-dependent cell viability with CellTiter-Glo kit, competition with cellular ATP; type: cell-based; details: 10 μM
# Protocol: as §5
# SW480 colon cancer cells [8] = assay: CellTiter-Glo cell viability; type: cell-based; details: Homo sapiens; SW480, 12.5 μM; read-out: reduction in cell viability
# Protocol: as §4
# HCT116 cells [9] = assay: Microphotograph dose response of proliferation; type: cell-based; details: 5 μM and 10 μM
# Protocol: as §6
# SW480 colon cancer cells [10] = assay: Recovery after wash-out of compound; type: cell-based; details: SW480, 25 μM for 48 hours, then four days in fresh medium
# Protocol: To examine if treated cells would recover after the compound was washed out, SW480 colon cancer cells were treated with 25 μM 3-(2-bromoethyl) indole for 48 hours, then the monolayer was rinsed 3 times with culture medium to remove the compound. The cell monolayers were left in the fresh growth medium for four days of further incubation. Results shown in FIG. 10 reveal that the vehicle-treated SW480 cells rapidly grew to full confluency in just 48 hours.
# NF-kB [11] = assay: NF-kB luciferase reporter assay in SW480-NFL cells; type: cell-based
# From the text: One of the regulators of cyclin D1 is the multifunctional transcription factor NF-kB. The effect of 3-(2-bromoethyl) indole on NF-kB signaling was also examined. […] In carrying out the test, NF-kB reporter SW480 cells (SW-NFL) were used. The cells were stably transduced with a construct containing NF-kB-response elements linked to the luciferase gene as the reporter. Previous work has shown that these cells activate NF-kB in response to TNFα, as well as some clinically used chemotherapeutic drugs. As an experimental response to NF-kB activation, these cells express increased amounts of luciferase enzyme, which can be detected by luminescence assay.
# First, the effect of 3-(2-bromoethyl) indole and each of the thirteen other indole compounds on the basal levels of luciferase activity was assessed. An equal number of SW480-NFL cells seeded in a 96-well plate were treated with control vehicle (DMSO) or one of the fourteen indole-derivative test compounds. Luciferase enzyme activity was measured 24 hours after the treatment. […] See FIG. 12, where BEI-9 is the 9th indole test sample depicted in the graph.
# as §1
# In prior art, it has been shown that camptothecin (also referred to herein as “CPT”), one of adjuvant drugs clinically used to treat various types of cancers, activates NF-kB in SW480 reporter cells at peak activating concentrations of 0.5 μM or 1.0 μM. The consequence of NF-kB activation as a result of treatment with adjuvant chemotherapy drugs is still under study. To examine whether a combination of CPT with BEI-9 suppresses a drug-induced NF-kB response in SW480 reporter cells, such cells were treated with 0.5 μM CPT and varying concentrations (0.2 μM-12.5 μM) of BEI-9.
# NF-kB [12] = details: SW480 reporter cells; cited from earlier work
molecule,measurement,setting,value
"OCc1c[nH]c2ccccc12 [indole-3-carbinol, reference compound]",reduction of cancer cell viability and proliferation,SW480 colon cancer cells [1],about 30%
TNFα,"sign of cell apoptosis, single agent",SW480 cells [2],fails to indicate any sign of cell apoptosis
BrCCc1c[nH]c2ccccc12 [3-(2-bromoethyl) indole],expression of cyclin A protein,cyclin A,drastically decreased
same,"cell cycle profile, proliferation","SW480 cancer cells; SW480, 50 μM, 24 and 48 hours",effectively prevents proliferation
same,induction of sub-G1 population indicative of apoptosis,"SW480 cancer cells; SW480, 24 and 48 hours after treatment",no apparent induction of sub-G1 population
same,"apoptosis as accumulation of sub-G1 population, sequential treatment","SW480 cancer cells; SW480, CPT for 24 hours followed by BEI-9 for 24 hours",appearance of a distinct sub-G1 population
same,doses that inhibit cell proliferation,"SW480 cancer cells; SW480, dose response examination and cell cycle analysis, 12.5 to 100 μM",lower than 50 μM
same,"apoptosis as accumulation of sub-G1 population, co-treatment of CPT and BEI-9","SW480 cancer cells; SW480, flow cytometry",did not induce apoptosis
same,"apoptosis as accumulation of sub-G1 population, single agent","SW480 cancer cells; SW480, flow cytometry",did not induce apoptosis
same,cell death in cell cycle analysis,"SW480 cancer cells; SW480, highest concentration tested 100 μM",Cell death is noticed
same,"motility, ability to migrate and fill the wound gap",SW480 cells [3],markedly inhibited the motility
same,direct inhibition of luciferase,luciferase [4],does not inhibit luciferase
same,expression of cyclin D1 protein,cyclin D1,drastically decreased
same,"sign of cell apoptosis, single agent",SW480 cells [2],fails to indicate any sign of cell apoptosis
same,"sign of cell apoptosis, combination with TNFα","SW480 cells [2]; SW480, 5 μM compound combined with 25 ng/ml TNFα",appearance of cells with membrane blebs
same,cell proliferation by microscopic evaluation,SW480 colon cancer cells [5],failed to multiply
same,reduction of cancer cell viability and proliferation,"SW480 colon cancer cells [1]; SW480, within 48 hours, relative to control solvent DMSO",about 60%
same,viability index (absorbance 490 nm),HCT116 cells [6],decreased the viability index
same,inhibition of luciferase by competing with cellular ATP,luciferase [7],does not inhibit luciferase
same,cytotoxicity at 12.5 µM,SW480 colon cancer cells [8],~50%
same,proliferation of HCT116 cells,HCT116 cells [9],completely stopped the proliferation
same,recovery of cells after wash-out,SW480 colon cancer cells [10],not able to recover at all
same,difference between the effects of 0.5 μM and 5 μM on TNFα-activated NF-kB reporter,"NF-kB [11]; SW480-NFL, 25 ng/ml TNFα",over 10 fold
same,activation of NF-kB reporter activity by TNFα,"NF-kB [11]; SW480-NFL, 25 ng/ml TNFα, 5 μM or 10 μM compound",completely abolished
same,basal luciferase reporter activity,"NF-kB [11]; SW480-NFL, 24 hours after treatment",reduced the reporter activity
same,effect on CPT-induced NF-kB reporter activity,"NF-kB [11]; SW480 reporter cells, 0.5 μM CPT, 0.2 μM BEI-9",did not have any noticeable effect
same,inhibition of CPT-induced NF-kB response,"NF-kB [11]; SW480 reporter cells, 0.5 μM CPT, BEI-9 concentrations greater than 0.8 μM, versus CPT-only",more than 50%
CC[C@@]1(O)C(=O)OCc2c1cc1n(c2=O)Cc2cc3ccccc3nc2-1 [camptothecin],"apoptosis as accumulation of sub-G1 population, single agent","SW480 cancer cells; SW480, flow cytometry",did not induce apoptosis
same,peak activating concentrations for NF-kB activation,NF-kB [12],0.5 µM and 1.0 µM
"COc1ccc2[nH]ccc2c1 [5-methoxyindole, reference compound]",expression of cyclin A protein,cyclin A,did not exhibit the same beneficial effects
same,expression of cyclin D1 protein,cyclin D1,did not exhibit the same beneficial effects
